Measured values reported in patent publication US20210030022A1, “NOVEL USE OF SUBSTITUTED CHROMAN-6-OLS” (DSM IP ASSETS B.V., priority 2018, published 2021).
One block for each compound: values may come before it.

What was measured:
[1] = Oil Stability Index (OSI) in fish oil, Example 13; settings: for antioxidant activity (OSI) in fish oil compared with MNT: Example 13, 0.5 and 2 mg/g; for OSI: Table 28, FG30TG fish oil, 80° C.; for Protection Factor (%): Table 34, fish oil (80° C.)
Description: The compounds of formulae (3) and (7) were used in both fish and algal oils to see their antioxidant effect in these oils. Antioxidant effect was determined using mainly the Oil Stability Index (OSI). Two concentration levels were used: 0.5 mg/g (low level) and 2 mg/g (high level), respectively, have been added to 5 g of oil and used in the Oxidative Stability Instrument operated at 80° C. with the continuous air flow rate at ˜40 psi. All samples were run in duplicate. The Protection Factors (PF) for each compound, as percentage, in oil were calculated as, [formula]

[2] = Oxipres antioxidant efficacy value (EV) in poultry meal; settings: Oxipres 70° C., 5 bar O2, equimolar to BHT; EV relative to BHT (EV=1)
Description: (§1) Oxidative stability was assessed using an Oxipres (Mikrolab Aarhus A/S, Hojbjerg, Denmark). The ML OXIPRES® is designed to monitor the oxidation of heterogeneous products. Consumption of oxygen results in a pressure drop which is measured by means of pressure transducers. The samples are heated to accelerate the process and shorten the analysis time (Mikrolab Aarhus 2012).
(§2) Sample weights were 50 g. They were loaded into the Oxipres vessels and placed inside the stainless-steel pressure vessel and sealed. The pressure vessels were purged with pure oxygen and filled to an initial oxygen pressure of 5 bar and maintained at 70° C. during measurement (D. Ying, L. Edin, L. Cheng, L. Sanguansri, M. A. Augustin, LWT—Food Science and Technology 2015, 62, 1105-1111: “Enhanced oxidative stability of extruded product containing polyunsaturated oils.”).
(§3) The oxygen pressure was recorded as function of time. After sample load and temperature rise the pressure in the device is increasing within 10 hours up to the starting pressure. Thereafter it is decreasing. Consequently, the starting pressure is considered as being the pressure after 10 hours. The analysis ends after 130 hours at 70° C. The oxygen consumption ‘O2’ of the tested sample is calculated as follows: […]
(§4) A factor of protection called ‘EV’ (Efficacy Value) was developed to quantify with a relative number (relative to BHT) the antioxidant effect of the tested candidates. EV was calculated as follows:
(§5) EV, being relative to BHT (3,5-di-tert-butyl-4-hydroxy-toluene) (EV=1), makes it possible to compare the antioxidant compounds in a defined feed application.
(§6) Each of the compounds of formulae (1) to (6) were mixed into each matrix 1, 2 or 3 (pet food, poultry meal, fish meal) in an equimolar ratio compared to BHT. Batches of 200 g feed were produced in order to handle a minimum of 30 mg of antioxidant. First, a 1% pre-dilution of the antioxidant with the feed material was made. Then this pre-dilution was added to the final batch, mixed, sieved (1.25 mm sieve) and mixed using a turbula mixer. Thereafter 55 g of the final batch were packed into polyethylene bags, and stored at 4° C. until start of the Oxipres assay. Spare sample were stored at 4° C. Compound of formula (3) was measured in all three matrices. Compound of formula (1) was measured in matrix 1 and 2. Compound of formula (2) was measured in matrix 2. Compounds of formulae (4), (5) and (6) were measured in matrix 3. An efficacy value 0.7 has been considered as acceptable, an efficacy value ≥ the efficacy value of alpha-tocopherol as good, and an efficacy value ≥ the efficacy value of BHT as very good.

[3] = Oxipres antioxidant efficacy value (EV) in fish meal; settings: Oxipres 70° C., 5 bar O2, equimolar to BHT; EV relative to BHT (EV=1)
Description: as §1, §2, §3, §4, §5, §6

[4] = Oil Stability Index (OSI) in fish oil, Example 12; settings: for OSI / Protection Factor (%): FG30TG fish oil
Description: (§7) The compounds of formulae (4), (6), (8) and (9) were evaluated primarily for their oxidative stability by the Oil Stability Index (OSI) measurements. Two different levels of these antioxidants (0.5 and 2 mg/g) were used in 5 g of natural fish oil (Product code: FG30TG) and used in the Oxidative Stability Instrument at 80° C. with the air flow rate of 40 psi. The solubility of different amounts and types of antioxidants used in OSI was checked before and after the application.
The compounds of formulae (6) and (9) (see Table 14 below), compound of formula (4) (see Table 15 below) and compound of formula (8) (see Table 16 below) were used at different times in the Oxidative Stability instruments under similar operational conditions used for fish oil evaluations. MNT and the oil without any antioxidants (“Blank”) were always used to compare. Also, the synergistic effect of only oil soluble compounds with ascorbyl palmitate was determined using the OSI values. The polymers generated at the end of the experiment were determined by LC (LC=liquid chromatography).
The Protection Factors (PF) for each compound in oil were calculated in percentage as: […]

[5] = Oil Stability Index (OSI) in crude algal oil, Example 13; settings: for OSI: Table 33, crude algal oil (contained about 1.6 mg/g MNT prior to use), 80° C.; for Protection Factor (%): Table 35, crude algal oil (80° C.)
Description: The compounds of formulae (3) and (7) were used in both fish and algal oils to see their antioxidant effect in these oils. Antioxidant effect was determined using mainly the Oil Stability Index (OSI).
Two concentration levels were used: 0.5 mg/g (low level) and 2 mg/g (high level), respectively, have been added to 5 g of oil and used in the Oxidative Stability Instrument operated at 80° C. with the continuous air flow rate at ˜40 psi. All samples were run in duplicate. The Protection Factors (PF) for each compound, as percentage, in oil were calculated as,
The Oil Stability Indices (OSI) of crude algal oil with levels of 0.5 mg/g and 2 mg/g of compounds of formulae (3) or (7) are shown in Table 33.

Solubility in fish oil = format: physicochemical
Description: as §7, with “application. […]” for “application.”

[6] = Storage stability in fish oil (PV, p-AV), Example 13; settings: storage at 25° C.
Description: A storage stability study was performed to compare the variation of primary oxidation products, the hydroperoxides, generated during oxidation, measured in terms of peroxide value (PV) and the secondary oxidation products which were measured and determined as anisidine reactive substances or p-anisidine value (p-AV) of oil samples containing these compounds.
The two different concentrations of compounds of formulae (3) and (7) were used for the storage stability study. Each compound and MNT were added, each individually, to 40 g of fish oil samples in 60 ml amber bottles at 0.5 mg/g and 2 mg/g levels, thoroughly mixed and stored at ambient temperature for 19 days. All sample bottles were stored open to air, away from light. […] Peroxide values (PV) and p-anisidine values (p-AV) were determined at different times for 19 days.

[7] = Storage stability in fish oil (PV, p-AV, CD), Example 12; settings: FG30TG, 2 mg/g
Description: Tables 25, 26 and 27 show the PV (peroxide value), p-AV (p-anisidine value) and CD (Conjugated dienoic acid %) of the fish oil samples stabilized with compounds of formulae (6), (8) and (9), respectively.
For the storage stability study oil soluble compounds were used in fish oil at 2 mg/g level only. […] There was no considerable variation in p-AV and CD (Tables 26-27) during the storage.

Compound: 6-Hydroxy-7-Methoxy-2,2-Dimethyl-Chroman-4-One [Compound of formula (10)]
- antioxidant activity (OSI) in fish oil compared with MNT [1]: comparable antioxidant activity to MNT

Compound: CC1CCc2cc(O)ccc2O1 (stereo not shown) [Compound of formula (2), 2-methyl-chroman-6-ol]
- EV in poultry meal [2]: 1.09

Compound: COc1cc2c(cc1O)CCC(C)(C)O2 [Compound of formula (4), 7-Methoxy-2,2-Dimethyl-6-Chromanol]
- EV in Fish meal [3]: 1.05
- OSI ([4]; Table 15, 80° C., 0.5 mg/g): 4.98 h
- OSI ([4]; Table 15, 80° C., 2 mg/g): 5.95 h
- Protection Factor (%) ([4]; Table 18, 0.5 mg/g): 4.74%
- Protection Factor (%) ([4]; Table 18, 2 mg/g): 25.26%
- antioxidant effect (OSI) in fish oil compared with MNT ([4]; fish oil, Example 12, same level of MNT): lower OSI values than those of MNT

Compound: Cc1c(C)c2c(c(C)c1O)CCC(C)(C)O2 [Compound of formula (5), 2,2,5,7,8-pentamethyl-chroman-6-ol]
- EV in Fish meal [3]: 1.08

- Solubility in oil (Solubility in fish oil; fish oil, 0.5 and 2 mg/g, mixed around 40° C. to dissolve completely): not readily soluble in oil
Compound: CC(C)CCCC1(C)CCc2cc(O)ccc2O1 (stereo not shown) [Compound of formula (7), 2-(4-methylpentyl)-2-methyl-chroman-6-ol]
- OSI ([5]; 0.5 mg/g): 16.38 h
- OSI ([5]; 2 mg/g): 18.53 h
- Protection Factor (%) ([5]; 0.5 mg/g): 9.2%
- Protection Factor (%) ([5]; 2 mg/g): 23.5%
- OSI ([1]; 0.5 mg/g): 6.15 h
- OSI ([1]; 2 mg/g): 7.23 h
- Protection Factor (%) ([1]; 0.5 mg/g): 23%
- Protection Factor (%) ([1]; 2 mg/g): 44.5%
- antioxidant activity (OSI) in fish oil compared with MNT [1]: comparable in activity with MNT
- Peroxide values (PV, meq/kg) ([6]; 0.5 mg/g level, 1 day): 1 meq/kg
- p-Anisidine value (p-AV) ([6]; 0.5 mg/g level, 1 day): 9.5
- Peroxide values (PV, meq/kg) ([6]; 0.5 mg/g level, 5 days): 2 meq/kg
- p-Anisidine value (p-AV) ([6]; 0.5 mg/g level, 5 days): 9.8
- Peroxide values (PV, meq/kg) ([6]; 0.5 mg/g level, 8 days): 6.4 meq/kg
- p-Anisidine value (p-AV) ([6]; 0.5 mg/g level, 8 days): 11.1
- Peroxide values (PV, meq/kg) ([6]; 0.5 mg/g level, 14 days): 11.8 meq/kg
- p-Anisidine value (p-AV) ([6]; 0.5 mg/g level, 14 days): 12.4
- Peroxide values (PV, meq/kg) ([6]; 0.5 mg/g level, 19 days): 19.5 meq/kg
- p-Anisidine value (p-AV) ([6]; 0.5 mg/g level, 19 days): 12.9
- Peroxide values (PV, meq/kg) ([6]; 0.5 mg/g level, Initial): 1 meq/kg
- p-Anisidine value (p-AV) ([6]; 0.5 mg/g level, Initial): 9.4
- Peroxide values (PV, meq/kg) ([6]; 2 mg/g level, 1 day): 1 meq/kg
- p-Anisidine value (p-AV) ([6]; 2 mg/g level, 1 day): 9.3
- Peroxide values (PV, meq/kg) ([6]; 2 mg/g level, 5 days): 1.9 meq/kg
- p-Anisidine value (p-AV) ([6]; 2 mg/g level, 5 days): 9.3
- Peroxide values (PV, meq/kg) ([6]; 2 mg/g level, 8 days): 8.2 meq/kg
- p-Anisidine value (p-AV) ([6]; 2 mg/g level, 8 days): 11.1
- Peroxide values (PV, meq/kg) ([6]; 2 mg/g level, 14 days): 16.4 meq/kg
- p-Anisidine value (p-AV) ([6]; 2 mg/g level, 14 days): 11.9
- Peroxide values (PV, meq/kg) ([6]; 2 mg/g level, 19 days): 27.3 meq/kg
- p-Anisidine value (p-AV) ([6]; 2 mg/g level, 19 days): 12.9
- Peroxide values (PV, meq/kg) ([6]; 2 mg/g level, Initial): 1 meq/kg
- p-Anisidine value (p-AV) ([6]; 2 mg/g level, Initial): 9.4

- Solubility in fish oil, 80° C. (Solubility in fish oil; 0.5 mg/g): soluble
- Solubility in fish oil, Room temp. (Solubility in fish oil; 0.5 mg/g): soluble
- Solubility in fish oil, 80° C. (Solubility in fish oil; 2.0 mg/g): soluble
- Solubility in fish oil, Room temp. (Solubility in fish oil; 2.0 mg/g): soluble
Compound: CC(C)CCCC(C)CCCC1(C)CCc2cc(O)ccc2O1 (stereo not shown) [Compound of formula (8), 2-(4,8-dimethylnonyl)-2-methyl-chroman-6-ol]
- CD (conjugated dienoic acid in %) ([7]; 4 days): 0.6%
- PV (peroxide value) ([7]; 4 days): 1.6
- p-AV (p-anisidine value) ([7]; 4 days): 10.3
- CD (conjugated dienoic acid in %) ([7]; 6 days): 0.6%
- PV (peroxide value) ([7]; 6 days): 1.8
- p-AV (p-anisidine value) ([7]; 6 days): 9.8
- CD (conjugated dienoic acid in %) ([7]; 8 days): 0.2%
- PV (peroxide value) ([7]; 8 days): 3.1
- p-AV (p-anisidine value) ([7]; 8 days): 10
- CD (conjugated dienoic acid in %) ([7]; 11 days): 0.7%
- PV (peroxide value) ([7]; 11 days): 3.7
- p-AV (p-anisidine value) ([7]; 11 days): 10.4
- CD (conjugated dienoic acid in %) ([7]; 13 days): 0.7%
- PV (peroxide value) ([7]; 13 days): 8.7
- p-AV (p-anisidine value) ([7]; 13 days): 10.6
- CD (conjugated dienoic acid in %) ([7]; 15 days): 0.8%
- PV (peroxide value) ([7]; 17 days): 11.5
- p-AV (p-anisidine value) ([7]; 17 days): 11
- CD (conjugated dienoic acid in %) ([7]; Initial): 0.7%
- PV (peroxide value) ([7]; Initial): 0.9
- p-AV (p-anisidine value) ([7]; Initial): 9.9
- OSI ([4]; Table 16, 80° C., 0.5 mg/g): 5.48 h
- OSI ([4]; Table 16, 80° C., 2 mg/g): 5.96 h
- Protection Factor (%) ([4]; Table 19, 0.5 mg/g): 15.42%
- Protection Factor (%) ([4]; Table 19, 2 mg/g): 25.89%
- OSI ([4]; Table 21, 2 mg/g + 0.5 mg/g of AP (ascorbyl palmitate)): 7.03 h
- OSI ([4]; Table 21, 2 mg/g, without AP): 6.58 h
- Protection Factor (%) ([4]; Table 23, 2 mg/g + 0.5 mg/g of AP): 130%
- Protection Factor (%) ([4]; Table 23, 2 mg/g, without AP): 145%
